Results on 14 molecules are retold here after patent US9828366B2, “Bicyclic derivatives and pharmaceutical composition including the same” (HANMI PHARM. CO., LTD., priority 2014, dated 2017).

Each structure is given as a SMILES string.

For assay [1], the target named is T1, hSGLT2 (Homo sapiens, UniProt P31639).
T1 construct: FLAG; expressed in transfected cells
T1 sequence (P31639 1-672): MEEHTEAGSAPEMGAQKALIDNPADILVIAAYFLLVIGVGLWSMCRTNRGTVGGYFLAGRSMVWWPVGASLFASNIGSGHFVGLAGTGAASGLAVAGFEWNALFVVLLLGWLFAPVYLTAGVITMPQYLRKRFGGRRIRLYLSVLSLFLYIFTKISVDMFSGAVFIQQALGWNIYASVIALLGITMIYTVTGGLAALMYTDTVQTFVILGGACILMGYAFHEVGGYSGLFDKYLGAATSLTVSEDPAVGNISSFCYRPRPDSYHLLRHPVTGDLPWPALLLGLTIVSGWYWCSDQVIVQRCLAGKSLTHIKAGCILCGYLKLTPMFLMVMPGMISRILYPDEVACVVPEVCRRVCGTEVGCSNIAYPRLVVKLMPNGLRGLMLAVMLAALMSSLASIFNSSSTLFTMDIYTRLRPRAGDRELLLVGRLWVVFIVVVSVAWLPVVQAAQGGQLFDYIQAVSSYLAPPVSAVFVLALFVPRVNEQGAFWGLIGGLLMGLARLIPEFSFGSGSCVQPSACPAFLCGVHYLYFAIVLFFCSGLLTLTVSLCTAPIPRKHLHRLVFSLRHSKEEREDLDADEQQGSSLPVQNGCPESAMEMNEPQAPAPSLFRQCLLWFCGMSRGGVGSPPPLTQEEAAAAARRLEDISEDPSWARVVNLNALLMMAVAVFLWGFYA
Kind of assay: [14C]-AMG uptake assay in HEK293-hSGLT2 cells. It is filed as cell-based. The following applies: HEK293-hSGLT2 stable cell line. The protocol: (§1) For the evaluation of the pharmaceutical efficacies of the compounds as a SGLT inhibitor, a glucose uptake assay was conducted by using stable cell lines, i.e., HEK293-hSGLT1 and HEK293-hSGLT2. The stable cell lines were prepared by transfection of human embryonic kidney 293 (HEK293) cell line with pcDNA3.1(+)-FLAG-hSGLT1 and pcDNA3.1(+)-FLAG-hSGLT2 vectors.
(§2) The cells were seeded in a 96-well poly-D-lysine (PDL) coated plate at a density of 2.5×10^4 cells/well and cultured in a cell culture incubator for one day at 37° C., 5% CO2. Then, the cells were washed once with 1× assay buffer (140 mM NaCl, 5 mM KCl, 2.5 mM CaCl2, 1 mM MgSO4.7H2O, 1 mM KH2PO4, 10 mM HEPES) and pre-incubated in a cell culture incubator for 30 minutes with 1× assay buffer at 37° C., 5% CO2. Each compound obtained in the Examples was 10-fold diluted with 1× assay buffer. The diluted compounds were added to the plate at various concentrations and then cultured in a cell culture incubator for 1 hour at 37° C., 5% CO2.
(§3) Radioactive [^14C]-alpha-methyl-D-glucopyranoside (Cat# NEC659250UC, Perkin Elmer) was diluted with 1× assay buffer at a concentration of 0.2 μCi. The diluted [^14C]-AMG was added to all the wells in plate in the same amount, and the cells were cultured in a cell culture incubator for 2 hours at 37° C., 5% CO2. The cells were washed three times with cold Dulbecco's Phosphate buffer saline (DPBS) and then lysed with 0.2 N NaOH for 10 minutes at room temperature with shaking. After addition of MicroScint 20 fluid, the cells were allowed to shake for 15 minutes at room temperature, and then the activity of [^14C]AMG was quantified on a β-scintillation counter. IC50 of each of the compounds was determined by GraphPad Prism 4.0 software.

Assay [2] has as its target T2, hSGLT1 (Homo sapiens, UniProt P13866).
T2 construct: FLAG; expressed in transfected cells
T2 sequence (P13866 1-664): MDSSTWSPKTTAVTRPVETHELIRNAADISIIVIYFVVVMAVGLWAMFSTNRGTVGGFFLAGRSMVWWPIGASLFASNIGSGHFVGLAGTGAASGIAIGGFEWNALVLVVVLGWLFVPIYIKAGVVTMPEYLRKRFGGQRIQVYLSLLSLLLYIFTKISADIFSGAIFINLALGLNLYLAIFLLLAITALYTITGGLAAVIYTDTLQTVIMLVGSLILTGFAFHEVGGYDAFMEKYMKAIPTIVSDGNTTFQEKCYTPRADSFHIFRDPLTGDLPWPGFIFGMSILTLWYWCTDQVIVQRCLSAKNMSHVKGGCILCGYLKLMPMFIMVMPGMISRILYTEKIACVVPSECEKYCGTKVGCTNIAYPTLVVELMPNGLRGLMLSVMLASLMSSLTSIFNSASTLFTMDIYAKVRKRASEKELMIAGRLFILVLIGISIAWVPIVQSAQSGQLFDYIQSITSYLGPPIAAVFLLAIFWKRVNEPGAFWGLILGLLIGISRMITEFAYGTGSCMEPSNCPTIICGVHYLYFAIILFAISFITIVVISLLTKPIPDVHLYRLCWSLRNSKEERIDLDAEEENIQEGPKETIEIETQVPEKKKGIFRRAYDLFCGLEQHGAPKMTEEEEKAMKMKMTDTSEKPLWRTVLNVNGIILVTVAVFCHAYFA
The assay is described as follows: [14C]-AMG uptake assay in HEK293-hSGLT1 cells. The assay is classed as cell-based. The following applies: HEK293-hSGLT1 stable cell line. As to the method: as §1, §2, §3

In assay [3] the test system is C57BL/6 male mice. Kind of assay: Urinary glucose excretion test (UGE test). The assay is classed as in vivo. The following applies: 3 mg/kg oral (Examples 13 to 38), 2 g/kg glucose after 30 minutes, urine collected for 24 hours. As to the method:
The pharmaceutical efficacies of the compounds prepared in the Examples were investigated by a urinary glucose excretion test using C57BL/6 male mice (8-week-old, prepared and supplied from Orient Chemical Co. Ltd.).
Two mice were used in each group. The mice were fasted for 16 hours, and the compound of each of the Examples [10 mg/kg of the compound of Examples 1 to 12; and 3 mg/kg of the compound of Examples 13 to 38] was dissolved in a vehicle [a mixed solution of 5% 1-methyl-2-pyrrolidinone, 20% PEG, and 75% 20 mM sodium diphosphate], and orally administered to the mice. After 30 minutes, 2 g/kg of glucose was orally administered to the mice in all the groups. Thereafter, the mice were immediately put into a metabolic cage, and urine was collected for 24 hours. The mice were freely fed an hour after the administration of glucose.
The results obtained from the test, that is, the results obtained by measuring urinary glucose excretion in the C57BL/6 male mice according to the compounds of the Examples, are listed in Table 5.

Consider `COc1ccc(Cc2cc([C@@H]3O[C@H](CO)[C@@H](O)[C@H](O)[C@H]3O)cc3c2CCC3)cc1` [Example 14, (2R,3S,4R,5R,6S)-2-(hydroxymethyl)-6-(7-(4-methoxybenzyl)-2,3-dihydro-1H-inden-5-yl)tetrahydro-2H-pyran-3,4,5-triol], for which the figures for the IC50 in assay [1] and in assay [2] were 4 nM and 31.9 nM, respectively.

`Cc1ccc(Cc2cc([C@@H]3O[C@H](CO)[C@@H](O)[C@H](O)[C@H]3O)cc3c2CCC3)cc1` [Example 15, (2R,3S,4R,5R,6S)-2-(hydroxymethyl)-6-(7-(4-methylbenzyl)-2,3-dihydro-1H-inden-5-yl)tetrahydro-2H-pyran-3,4,5-triol] displayed a UGE in assay [3] of 8.1 mg/20 g/24 hr. The IC50 in assay [1] stood at 9.6 nM; in assay [2], 7.7 nM.

For `CCc1ccc(Cc2cc([C@@H]3O[C@H](CO)[C@@H](O)[C@H](O)[C@H]3O)cc3c2CCC3)cc1` [Example 16, (2S,3R,4R,5S,6R)-2-(7-(4-ethylbenzyl)-2,3-dihydro-1H-inden-5-yl)-6-(hydroxymethyl)tetrahydro-2H-pyran-3,4,5-triol], the UGE in assay [3] is listed as 16.4 mg/20 g/24 hr. The IC50 was determined as 5.6 nM in assay [1] and 54.6 nM in assay [2].

Consider `OC[C@H]1O[C@@H](c2cc3c(c(Cc4ccc(OC(F)(F)F)cc4)c2)CCC3)[C@H](O)[C@@H](O)[C@@H]1O` [Example 22, (2R,3S,4R,5R,6S)-2-(hydroxymethyl)-6-(7-(4-(trifluoromethoxy)benzyl)-2,3-dihydro-1H-inden-5-yl)tetrahydro-2H-pyran-3,4,5-triol], for which the UGE in assay [3] was found to be 9.6 mg/20 g/24 hr. Moreover, the IC50 is 9.2 nM in assay [1] and 511 nM in assay [2].

Regarding `OC[C@H]1O[C@@H](c2cc3c(c(Cc4ccc(C(F)(F)F)cc4)c2)CCC3)[C@H](O)[C@@H](O)[C@@H]1O` [Example 24, (2R,3S,4R,5R,6S)-2-(hydroxymethyl)-6-(7-(4-(trifluoromethyl)benzyl)-2,3-dihydro-1H-inden-5-yl)tetrahydro-2H-pyran-3,4,5-triol], the 50% inhibitory concentration (IC50) in assay [1] came out at 6.8 nM; in assay [2] it was 267 nM.

Regarding `OC[C@H]1O[C@@H](c2cc3c(c(Cc4ccc5c(c4)OCO5)c2)CCC3)[C@H](O)[C@@H](O)[C@@H]1O` [Example 29, (2S,3R,4R,5S,6R)-2-(7-(benzo[d][1,3]dioxol-5-ylmethyl)-2,3-dihydro-1H-inden-5-yl)-6-(hydroxymethyl)tetrahydro-2H-pyran-3,4,5-triol], the results for the concentration for half-maximal inhibition (IC50) in assay [1] and in assay [2] were 3.5 nM and 35.2 nM, respectively.

In turn, `OC[C@H]1O[C@@H](c2cc3c(c(Cc4ccc5c(c4)OCCO5)c2)CCC3)[C@H](O)[C@@H](O)[C@@H]1O` [Example 30, (2S,3R,4R,5S,6R)-2-(7-((2,3-dihydrobenzo[1,4]dioxin-6-yl)methyl)-2,3-dihydro-1H-inden-5-yl)-6-(hydroxymethyl)tetrahydro-2H-pyran-3,4,5-triol] gave a UGE in assay [3] of 7.2 mg/20 g/24 hr. Besides, the IC50 turned out to be 3.5 nM in assay [1] and 55.2 nM in assay [2].

For `CC(C)(C)c1ccc(Cc2cc([C@@H]3O[C@H](CO)[C@@H](O)[C@H](O)[C@H]3O)cc3c2CCC3)cc1` [Example 31, (2S,3R,4R,5S,6R)-2-(7-(4-(tert-butyl)benzyl)-2,3-dihydro-1H-inden-5-yl)-6-(hydroxymethyl)tetrahydro-2H-pyran-3,4,5-triol], the figures for the IC50 in assay [1] and in assay [2] were 5.8 nM and 178 nM, respectively.

Take `Cc1ccc(Cc2cc([C@@H]3O[C@H](CO)[C@@H](O)[C@H](O)[C@H]3O)cc3c2CCC3)cc1C` [Example 32, (2S,3R,4R,5S,6R)-2-(7-(3,4-dimethylbenzyl)-2,3-dihydro-1H-inden-5-yl)-6-(hydroxymethyl)tetrahydro-2H-pyran-3,4,5-triol]: the IC50 in assay [1] came to 4.5 nM; in assay [2], 63.2 nM.

`OC[C@H]1O[C@@H](c2cc3c(c(Cc4ccc(OCC(F)(F)F)cc4)c2)CCC3)[C@H](O)[C@@H](O)[C@@H]1O` [Example 34, (2R,3S,4R,5R,6S)-2-(hydroxymethyl)-6-(7-(4-(2,2,2-trifluoroethoxy)benzyl)-2,3-dihydro-1H-inden-5-yl)tetrahydro-2H-pyran-3,4,5-triol]: the 50% inhibitory concentration (IC50) in assay [1] is 13.5 nM; in assay [2], 553 nM.

On to `OC[C@H]1O[C@@H](c2cc3c(c(Cc4ccc(-c5ccc(F)cc5)s4)c2)CCC3)[C@H](O)[C@@H](O)[C@@H]1O` [Example 36, (2S,3R,4R,5S,6R)-2-(7-((5-(4-fluorophenyl)thiophen-2-yl)methyl)-2,3-dihydro-1H-inden-5-yl)-6-(hydroxymethyl)tetrahydro-2H-pyran-3,4,5-triol], for which the IC50 in assay [1] is 9 nM; in assay [2], 84.9 nM.

In turn, `OC[C@H]1O[C@@H](c2cc3c(c(Cc4cc5ccccc5s4)c2)CCC3)[C@H](O)[C@@H](O)[C@@H]1O` [Example 37, (2S,3R,4R,5S,6R)-2-(7-(benzo[b]thiophen-2-ylmethyl)-2,3-dihydro-1H-inden-5-yl)-6-(hydroxymethyl)tetrahydro-2H-pyran-3,4,5-triol] came in with a UGE in assay [3] of 14.5 mg/20 g/24 hr. Also, the IC50 in assay [1] came to 9 nM; in assay [2] it was 19.8 nM.

The molecule `OC[C@H]1O[C@@H](c2cc3c(c(Cc4ccc(C5CC5)cc4)c2)CCC3)[C@H](O)[C@@H](O)[C@@H]1O` [Example 38, (2S,3R,4R,5S,6R)-2-(7-(4-cyclopropylbenzyl)-2,3-dihydro-1H-inden-5-yl)-6-(hydroxymethyl)tetrahydro-2H-pyran-3,4,5-triol] registered a UGE in assay [3] of 14.8 mg/20 g/24 hr. Besides, the results for the IC50 in assay [1] and in assay [2] were 5.8 nM and 24.9 nM, respectively.

With `OC[C@H]1O[C@@H](c2cc3c(c(Cc4ccc(Cl)cc4)c2)CCC3)[C@H](O)[C@@H](O)[C@@H]1O` [Example 40, (2S,3R,4R,5S,6R)-2-(7-(4-chlorobenzyl)-2,3-dihydro-1H-inden-5-yl)-6-(hydroxymethyl)tetrahydro-2H-pyran-3,4,5-triol], the IC50 in assay [1] amounted to 28.8 nM; in assay [2], 210 nM.
